According to ChEMBL document CHEMBL3396976, “Design, synthesis and evaluation of isoxazolo[5,4-d]pyrimidin-4(5H)-one derivatives as antithrombotic agents” (Bioorg Med Chem Lett, 2015):
Activity calls are given as the source filed them. No cut-off for these calls is given here.

How the values were obtained:
Coagulation factor X [1] = target: T1, Coagulation factor X (Homo sapiens, UniProt P00742); assay: Inhibition of human F10a using chromogenic substrate S-2765 preincubated for 10 mins at 0.1 uM by spectrophotometry
Coagulation factor X [2] = target: T1, Coagulation factor X; assay: Inhibition of human F10a using chromogenic substrate S-2765 preincubated for 10 mins by spectrophotometry
Plasma = assay: Anticoagulant activity in human plasma assessed as concentration required to double prothrombin time; type: functional
Homo sapiens [3] = organism: Homo sapiens; assay: Selectivity ratio of IC50 for trypsin (unknown origin) to IC50 for human F10a
Prothrombin = Prothrombin (Homo sapiens, UniProt P00734); assay: Inhibition of thrombin (unknown origin) using chromogenic substrate S-2238 by spectrophotometry
Homo sapiens [4] = organism: Homo sapiens; assay: Selectivity ratio of IC50 for thrombin (unknown origin) to IC50 for human F10a

T1 sequence (P00742 41-179 limits assumed): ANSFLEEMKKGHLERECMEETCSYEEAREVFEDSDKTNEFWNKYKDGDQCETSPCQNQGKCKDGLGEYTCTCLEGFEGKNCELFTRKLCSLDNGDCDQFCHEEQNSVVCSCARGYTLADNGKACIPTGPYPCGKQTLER
T1 sequence (P00742 235-488 limits assumed): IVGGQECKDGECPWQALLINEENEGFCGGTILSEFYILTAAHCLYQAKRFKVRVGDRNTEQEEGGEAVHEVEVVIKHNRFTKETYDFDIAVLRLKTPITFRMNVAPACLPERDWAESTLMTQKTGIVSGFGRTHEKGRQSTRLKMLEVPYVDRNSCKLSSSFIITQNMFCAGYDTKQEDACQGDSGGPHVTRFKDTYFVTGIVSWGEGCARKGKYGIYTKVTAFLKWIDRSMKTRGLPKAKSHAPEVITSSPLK

inhibition (Coagulation factor X [1]) | Compound | further results
41% | Cc1nc2onc(-c3ccc(Cl)cc3)c2c(=O)n1-c1ccc(N2CCOCC2=O)cc1 | –
inactive | Cc1ccc(-c2noc3nc(C)n(-c4ccc(N5CCOCC5=O)cc4)c(=O)c23)cc1 | –
78% | COc1ccc(-c2noc3ncn(-c4ccc(N5CCOCC5=O)cc4)c(=O)c23)cc1 | –
89% | COc1ccc(-c2noc3ncn(-c4ccc(C(=O)Nc5ccccn5)cc4)c(=O)c23)cc1 | IC50 (Coagulation factor X [2]): 0.018 µM; 2PT (Plasma): 3.37 µM; Ratio IC50 (Homo sapiens [3]): > 1000; IC50 (Prothrombin): > 20 µM; Ratio IC50 (Homo sapiens [4]): > 1000
43% | Cc1ccc(-c2noc3ncn(-c4ccc(N5CCOCC5=O)cc4)c(=O)c23)cc1 | –
72% | COc1ccc(-c2noc3ncn(-c4ccc(C(=O)NC5CCCCC5)cc4)c(=O)c23)cc1 | –
37% | COc1ccc(-c2noc3ncn(-c4ccc(C(=O)N5CCOCC5)cc4)c(=O)c23)cc1 | –
81% | COc1ccc(-c2noc3ncn(-c4ccc(C(=O)Nc5ccccc5)cc4)c(=O)c23)cc1 | –
83% | CCCNC(=O)c1ccc(-n2cnc3onc(-c4ccc(OC)cc4)c3c2=O)cc1 | –
inactive | CCc1nc2onc(-c3ccc([N+](=O)[O-])cc3)c2c(=O)n1-c1ccc(N2CCOCC2=O)cc1 | –
27% | O=C1COCCN1c1ccc(-n2cnc3onc(-c4ccccc4)c3c2=O)cc1 | –
55% | COc1ccc(-c2noc3nc(C)n(-c4ccc(N5CCOCC5=O)cc4)c(=O)c23)cc1 | –
inactive | CCc1nc2onc(-c3ccccc3)c2c(=O)n1-c1ccc(N2CCOCC2=O)cc1 | –
inactive | O=C1COCCN1c1ccc(-n2cnc3onc(-c4ccc([N+](=O)[O-])cc4)c3c2=O)cc1 | –
54% | COc1ccc(-c2noc3ncn(-c4ccc(C(=O)N5CCCCC5)cc4)c(=O)c23)cc1 | –
98% | COc1cc(-c2noc3ncn(-c4ccc(N5CCOCC5=O)cc4)c(=O)c23)ccc1OC(C)=O | IC50 (Coagulation factor X [2]): 0.013 µM; 2PT (Plasma): 2.12 µM; Ratio IC50 (Homo sapiens [3]): > 1000; IC50 (Prothrombin): > 20 µM; Ratio IC50 (Homo sapiens [4]): > 1000
47% | COc1ccc(-c2noc3nc(C)n(-c4ccc(N5CCOCC5=O)cc4)c(=O)c23)cc1OC | –
46% | COc1ccc(-c2noc3ncn(-c4ccc(C(=O)N5CCCC5)cc4)c(=O)c23)cc1 | –
83% | CCN(CC)C(=O)c1ccc(-n2cnc3onc(-c4ccc(OC)cc4)c3c2=O)cc1 | –
Active | O=C(NC[C@H]1CN(c2ccc(N3CCOCC3=O)cc2)C(=O)O1)c1ccc(Cl)s1 | –
inactive | Cc1nc2onc(-c3ccccc3)c2c(=O)n1-c1ccc(N2CCOCC2=O)cc1 | –
56% | O=C1COCCN1c1ccc(-n2cnc3onc(-c4ccc(Cl)cc4)c3c2=O)cc1 | –
inactive | CCc1nc2onc(-c3ccc(Cl)cc3)c2c(=O)n1-c1ccc(N2CCOCC2=O)cc1 | –
36% | CCc1nc2onc(-c3ccc(OC)cc3)c2c(=O)n1-c1ccc(N2CCOCC2=O)cc1 | –
77% | COc1ccc(-c2noc3ncn(-c4ccc(N5CCOCC5=O)cc4)c(=O)c23)cc1OC | –
inactive | CCc1nc2onc(-c3ccc(C)cc3)c2c(=O)n1-c1ccc(N2CCOCC2=O)cc1 | –
75% | COc1ccc(-c2noc3ncn(-c4ccc(C(=O)NC5CCCC5)cc4)c(=O)c23)cc1 | –
42% | CCc1nc2onc(-c3ccc(OC)c(OC)c3)c2c(=O)n1-c1ccc(N2CCOCC2=O)cc1 | –
47% | COc1ccc(-c2noc3ncn(-c4ccc(C(=O)N(C)c5ccccc5)cc4)c(=O)c23)cc1 | –
inactive | Cc1nc2onc(-c3ccc([N+](=O)[O-])cc3)c2c(=O)n1-c1ccc(N2CCOCC2=O)cc1 | –
